Values quoted from earlier work in PubChem BioAssay AID1259409 (Chemical Carcinogenesis Research Information System (CCRIS), 2018).
“And” between values parts separate entries of the source, which are not always exact repeats. Identical values can stand only once.

Tested on: rodent chemically induced tumor inhibition, incidence and multiplicity
Test: CCRIS tumor inhibitor studies
Settings: Carcinogen: 7,12-DIMETHYLBENZ[A]ANTHRACENE, 57-97-6, Route [Inhibitor]: DERMAL, Species: MOUSE, Target Tissue: Type of Lesion: SKIN: PAPILLOMA, Promoter: 12-O-TETRADECANOYLPHORBOL-13-ACETATE, 16561-29-8

## CC1=C(/C=C/C(C)=C/C=C/C(C)=C/C(=O)O)C(C)(C)CCC1
Dose [Inhibitor]: 17 NMOL IN 0.2 ML ACETONE 1 HR PRIOR TO EACH PROMOTER DOSE BEGINNING AT WEEK 10 OF PROMOTION AND CONTINUING FOR DURATION, Strain/Sex: CD-1/FEMALE, Dose [Carcinogen]: 200 NMOL IN 0.2 ML ACETONE ONCE
  tumour outcome (control, treated, inhibition, significance): 100%, 95%, 5%, p>0.3
Dose [Inhibitor]: 17 NMOL IN 0.2 ML ACETONE 1 HR PRIOR TO EACH PROMOTER DOSE FOR 12 WK (STUDY DURATION: 14 WK), Strain/Sex: SENCAR/FEMALE, Dose [Carcinogen]: 200 NMOL IN 0.2 ML ACETONE ONCE
  tumour outcome (control, treated, inhibition, significance): 100%, 87%, 13%, not calculated
Dose [Inhibitor]: 17 NMOL IN 0.2 ML ACETONE 1 HR PRIOR TO EACH PROMOTER DOSE FOR 20 WK (STUDY DURATION: 22 WK), Strain/Sex: CD-1/FEMALE, Dose [Carcinogen]: 200 NMOL IN 0.2 ML ACETONE ONCE
  tumour outcome (control, treated, inhibition, significance): 94%, 62%, 34%, not calculated
Dose [Inhibitor]: 17 NMOL IN 0.2 ML ACETONE 1 HR PRIOR TO EACH PROMOTER DOSE FOR DURATION OF STUDY (STUDY DURATION: 27 WK), Strain/Sex: CD-1/FEMALE, Dose [Carcinogen]: 200 NMOL IN 0.2 ML ACETONE ONCE
  tumour outcome (control, treated, inhibition, significance): 100%, 60%, 40%, p<0.02
Dose [Inhibitor]: 17 NMOL IN 0.2 ML ACETONE 1 HR PRIOR TO EACH PROMOTER DOSE FOR FIRST 10 WK OF PROMOTION (STUDY DURATION: 27 WK), Strain/Sex: CD-1/FEMALE, Dose [Carcinogen]: 200 NMOL IN 0.2 ML ACETONE ONCE
  tumour outcome (control, treated, inhibition, significance): 100%, 90%, 10%, p>0.3
Dose [Inhibitor]: 17 NMOL IN 0.2 ML ACETONE 2/WK 1 HR BEFORE EACH PROMOTER APPLICATION STARTING 14 D AFTER CARCINOGEN APPLICATION AND CONT, Strain/Sex: CD-1/FEMALE, Dose [Carcinogen]: 0.2 UMOL IN 0.2 ML ACETONE ONCE
  tumour outcome (control, treated, inhibition, significance): 98%, 42%, 57%, not calculated
Dose [Inhibitor]: 17 NMOL IN 0.2 ML ACETONE 2/WK 1 HR BEFORE EACH PROMOTER APPLICATION STARTING 14 D AFTER CARCINOGEN APPLICATION AND CONT, Strain/Sex: CD-1/FEMALE, Dose [Carcinogen]: 0.2 UMOL ONCE
  tumour outcome (control, treated, inhibition, significance): 100%, 80%, 20%, not significant
Dose [Inhibitor]: 17 NMOL IN 0.2 ML ACETONE 2/WK 24 HR AFTER EACH PROMOTER TREATMENT STARTING 14 D AFTER CARCINOGEN TREATMENT AND CONTINUI, Strain/Sex: CD-1/FEMALE, Dose [Carcinogen]: 0.2 UMOL IN 0.2 ML ACETONE ONCE
  tumour outcome (control, treated, inhibition, significance): 98%, 96%, 2%, not significant
Dose [Inhibitor]: 34 NMOL IN 0.2 ML ACETONE 2/WK 1 HR BEFORE EACH PROMOTER APPLICATION STARTING 14 D AFTER CARCINOGEN APPLICATION AND CONT, Strain/Sex: CD-1/FEMALE, Dose [Carcinogen]: 0.2 UMOL IN 0.2 ML ACETONE ONCE
  tumour outcome (control, treated, inhibition, significance): 90%, 55%, 39%, not calculated and 90%, 48%, 47%, not calculated
Dose [Inhibitor]: 68 NMOL IN 0.2 ML ACETONE 2/WK 1 HR BEFORE EACH PROMOTER APPLICATION STARTING 14 D AFTER CARCINOGEN APPLICATION AND CONT, Strain/Sex: CD-1/FEMALE, Dose [Carcinogen]: 0.2 UMOL IN 0.2 ML ACTEONE ONCE
  tumour outcome (control, treated, inhibition, significance): 95%, 53%, 44%, not calculated
